Source: the supplement of paper PMC10307832

How the values were obtained:
Assay in all cases: relative viability (nuclei count vs DMSO), 5 days (fraction); higher = more cells survive
CAP-232 + Bortezomib = compound: C[C@H]([C@@H](C(=O)N)NC(=O)[C@@H]1CSSC[C@@H](C(=O)N[C@H](C(=O)N[C@@H](C(=O)N[C@H](C(=O)N1)CCCCN)CC2=CNC3=CC=CC=C32)CC4=CC=C(C=C4)O)NC(=O)[C@@H](CC5=CC=CC=C5)N)O [CAP-232] + CC(C)C[C@H](NC(=O)[C@H](Cc1ccccc1)NC(=O)c1cnccn1)B(O)O [Bortezomib] (partner 0.002 µM)
How it was run: (§1)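 Nuclei were stained with Hoechst during a one-step fixation (final 0.05% Triton X-100, 1% formaldehyde, 1 ug/ml Hoechst) carried out 5 days after dosing, then counted on 4× images. The cells, lung cancer lines in 1536-well plates, had been dosed by pin tool the day after seeding with one drug alone or a fixed anchor-drug dose plus five library-drug doses (not always all listed) in √10 steps. Relative viability is the nuclei count in treated wells divided by that in vehicle wells, and each value is the median of duplicate plates.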

CAP-232 + Navitoclax = compound: C[C@H]([C@@H](C(=O)N)NC(=O)[C@@H]1CSSC[C@@H](C(=O)N[C@H](C(=O)N[C@@H](C(=O)N[C@H](C(=O)N1)CCCCN)CC2=CNC3=CC=CC=C32)CC4=CC=C(C=C4)O)NC(=O)[C@@H](CC5=CC=CC=C5)N)O [CAP-232] + CC1(C)CCC(c2ccc(Cl)cc2)=C(CN2CCN(c3ccc(C(=O)NS(=O)(=O)c4ccc(N[C@H](CCN5CCOCC5)CSc5ccccc5)c(S(=O)(=O)C(F)(F)F)c4)cc3)CC2)C1 [Navitoclax] (partner 0.5 µM)
How it was run: as §1

CAP-232 + Lapatinib = compound: C[C@H]([C@@H](C(=O)N)NC(=O)[C@@H]1CSSC[C@@H](C(=O)N[C@H](C(=O)N[C@@H](C(=O)N[C@H](C(=O)N1)CCCCN)CC2=CNC3=CC=CC=C32)CC4=CC=C(C=C4)O)NC(=O)[C@@H](CC5=CC=CC=C5)N)O [CAP-232] + CS(=O)(=O)CCNCc1ccc(-c2ccc3ncnc(Nc4ccc(OCc5cccc(F)c5)c(Cl)c4)c3c2)o1 [Lapatinib] (partner 2 µM)
How it was run: as §1

CAP-232 + Pictilisib = compound: C[C@H]([C@@H](C(=O)N)NC(=O)[C@@H]1CSSC[C@@H](C(=O)N[C@H](C(=O)N[C@@H](C(=O)N[C@H](C(=O)N1)CCCCN)CC2=CNC3=CC=CC=C32)CC4=CC=C(C=C4)O)NC(=O)[C@@H](CC5=CC=CC=C5)N)O [CAP-232] + CS(=O)(=O)N1CCN(Cc2cc3nc(-c4cccc5[nH]ncc45)nc(N4CCOCC4)c3s2)CC1 [Pictilisib] (partner 1 µM)
How it was run: as §1

CAP-232 + OSI-027 = compound: C[C@H]([C@@H](C(=O)N)NC(=O)[C@@H]1CSSC[C@@H](C(=O)N[C@H](C(=O)N[C@@H](C(=O)N[C@H](C(=O)N1)CCCCN)CC2=CNC3=CC=CC=C32)CC4=CC=C(C=C4)O)NC(=O)[C@@H](CC5=CC=CC=C5)N)O [CAP-232] + COc1cccc2cc(-c3nc([C@H]4CC[C@H](C(=O)O)CC4)n4ncnc(N)c34)[nH]c12 [OSI-027] (partner 0.5 µM)
How it was run: as §1

| Cell Line | relative viability (CAP-232 + Bortezomib; first compound 0.4 µM) | relative viability (CAP-232 + Bortezomib; first compound 1.265 µM) | relative viability (CAP-232 + Bortezomib; first compound 4 µM) | relative viability (CAP-232 + Bortezomib; first compound 12.65 µM) | relative viability (CAP-232 + Navitoclax; first compound 0.4 µM) | relative viability (CAP-232 + Navitoclax; first compound 1.265 µM) | relative viability (CAP-232 + Navitoclax; first compound 4 µM) | relative viability (CAP-232 + Navitoclax; first compound 12.65 µM) | relative viability (CAP-232 + Lapatinib; first compound 0.4 µM) | relative viability (CAP-232 + Lapatinib; first compound 1.265 µM) | relative viability (CAP-232 + Lapatinib; first compound 4 µM) | relative viability (CAP-232 + Lapatinib; first compound 12.65 µM) | relative viability (CAP-232 + Pictilisib; first compound 0.4 µM) | relative viability (CAP-232 + Pictilisib; first compound 1.265 µM) | relative viability (CAP-232 + Pictilisib; first compound 4 µM) | relative viability (CAP-232 + Pictilisib; first compound 12.65 µM) | relative viability (CAP-232 + OSI-027; first compound 0.4 µM) | relative viability (CAP-232 + OSI-027; first compound 1.265 µM) | relative viability (CAP-232 + OSI-027; first compound 4 µM) | relative viability (CAP-232 + OSI-027; first compound 12.65 µM) |
| --- | --- | --- | --- | --- | --- | --- | --- | --- | --- | --- | --- | --- | --- | --- | --- | --- | --- | --- | --- | --- |
| NCI-H1703 | 0.251 | 0.333 | 0.226 | 0.164 | 1.09 | 0.901 | 0.964 | 0.793 | 1.44 | 1.01 | 1.21 | 0.882 | 0.245 | 0.224 | 0.269 | 0.261 | – | – | – | – |
| LK-2 | – | – | – | – | 0.733 | 0.791 | 1.01 | 0.622 | 0.942 | 1.06 | 0.808 | 0.759 | 0.42 | 0.608 | 0.494 | 0.61 | 0.197 | 0.18 | 0.231 | 0.175 |
| NCI-H650 | 0.999 | 0.754 | 0.792 | 0.769 | – | – | – | – | 1.17 | 0.879 | 0.966 | 0.958 | 0.84 | 0.821 | 1.06 | 0.564 | 0.619 | 0.506 | 0.602 | 0.543 |
| NCI-H661 | 0.658 | 0.809 | 0.733 | 0.851 | – | – | – | – | 0.496 | 0.592 | 0.465 | 0.344 | 0.402 | 0.377 | 0.416 | 0.389 | 0.757 | 0.692 | 0.753 | 0.545 |
| NCI-H1793 | – | – | – | – | 0.412 | 0.346 | 0.329 | 0.361 | 0.563 | 0.625 | 0.75 | 0.745 | 0.334 | 0.284 | 0.31 | 0.283 | 0.282 | 0.253 | 0.196 | 0.25 |
| NCI-H1395 | – | – | – | – | 1.14 | 1 | 1.07 | 0.927 | 1.01 | 0.933 | 1.09 | 0.911 | 0.593 | 0.433 | 0.602 | 0.576 | 0.647 | 0.532 | 0.67 | 0.707 |
| SK-MES-1 | – | – | – | – | 1.28 | 1.17 | 1.45 | 1.1 | 0.534 | 0.469 | 0.419 | 0.473 | 0.335 | 0.379 | 0.32 | 0.323 | 0.696 | 0.557 | 0.583 | 0.264 |
| NCI-H1563 | 0.836 | 0.735 | 0.957 | 0.687 | – | – | – | – | 1.09 | 0.862 | 1.07 | 0.635 | 0.677 | 0.626 | 0.689 | 0.486 | 0.757 | 0.673 | 0.647 | 0.613 |
| IA-LM | 0.861 | 0.656 | 0.698 | 0.236 | 0.78 | 0.871 | 0.805 | 0.372 | 0.79 | 0.705 | 0.928 | 0.292 | 0.359 | 0.365 | 0.39 | 0.146 | – | – | – | – |
